# Laboratory results from patent US11959486B2, “Stable liquid formulation of AMG 416 (etelcalcetide)” (AMGEN INC., priority 2013, dated 2024).
# Assay: Stability of liquid formulations over range of pH 2-6 in succinate-buffered saline, HPLC purity, with extrapolation (Example 3)
# Format: physicochemical
# Experimental: The solution was divided evenly into five 4 mL portions which were adjusted to pH 2, 3, 4, 5 and 6, respectively, with NaOH and HCl as needed. Three 1 mL solutions were aliquoted from each portion and incubated at 2-8° C., room temperature (about 25° C.), and 40° C., respectively. The remaining 1 mL solution in each aliquot was diluted with pH 4.5 succinate buffered saline to 4 mL of 2.5 mg/mL peptide concentration, pH adjusted, and incubated in the same manner.
# Based on the extent of degradation at 28 days, predictions of the extent of degradation were calculated as described, supra. Bolded values indicate conditions which show less than 10% degradation, and which may be preferred for a liquid formulation. Conditions where the sample at 28 days show slightly higher purity than the initial data are presented as 0.0% for all projections.
# At each pH value, the degradation data for each of three temperatures is compared to data from the other two temperatures to calculate the observed acceleration. The predicted acceleration is by simple application of Arrhenius principles as described above.
# [1] = 2.5 mg/mL, pH 2, from 2-8° C. data
# [2] = 2.5 mg/mL, pH 2, from 40° C. data
# [3] = 2.5 mg/mL, pH 3, from 2-8° C. data
# [4] = 2.5 mg/mL, pH 3, from 40° C. data
# [5] = 2.5 mg/mL, pH 4, from 2-8° C. data
# [6] = 2.5 mg/mL, pH 4, from 40° C. data
# [7] = 2.5 mg/mL, pH 5, from 2-8° C. data
# [8] = 2.5 mg/mL, pH 5, from 40° C. data
# [9] = 2.5 mg/mL, pH 6, from 2-8° C. data
# [10] = 2.5 mg/mL, pH 6, from 40° C. data
# [11] = 10 mg/mL, pH 2, from 2-8° C. data
# [12] = 10 mg/mL, pH 2, from 40° C. data
# [13] = 10 mg/mL, pH 3, from 2-8° C. data
# [14] = 10 mg/mL, pH 3, from 40° C. data
# [15] = 10 mg/mL, pH 4, from 2-8° C. data
# [16] = 10 mg/mL, pH 4, from 40° C. data
# [17] = 10 mg/mL, pH 5, from 2-8° C. data
# [18] = 10 mg/mL, pH 5, from 40° C. data
# [19] = 10 mg/mL, pH 6, from 2-8° C. data
# [20] = 10 mg/mL, pH 6, from 40° C. data
smiles,measurement,setting,value
"CC(=O)N[C@H](CSSC[C@H](N)C(=O)O)C(=O)N[C@H](C)C(=O)N[C@H](CCCNC(=N)N)C(=O)N[C@H](CCCNC(=N)N)C(=O)N[C@H](CCCNC(=N)N)C(=O)N[C@H](C)C(=O)N[C@H](CCCNC(=N)N)C(N)=O [AMG 416, N-acetyl-D-cysteinyl-D-alanyl-D-arginyl-D-arginyl-D-arginyl-D-alanyl-D-arginamide disulfide with L-cysteine]",Observed degradation at 28 days,"2.5 mg/mL, pH 2, 2-8° C.",0.0%
same,Observed degradation at 28 days,"2.5 mg/mL, pH 2, 40° C.",9.1%
same,Observed degradation at 28 days,"2.5 mg/mL, pH 2, RT",0.6%
same,Calculated Degradation 1 y 2-8° C.,[1],0.0%
same,Calculated Degradation 1 y RT,[1],0.0%
same,Calculated Degradation 2 y 2-8° C.,[1],0.0%
same,Calculated Degradation 2 y RT,[1],0.0%
same,Calculated Degradation 1 y,[2],116.5%
same,Calculated Degradation 1 y RT,[2],29.1%
same,Calculated Degradation 2 y 2-8° C.,[2],14.6%
same,Calculated Degradation 2 y RT,[2],58.3%
same,Calculated Degradation 1 y,"2.5 mg/mL, pH 2, from RT data",7.9%
same,Calculated Degradation 1 y RT,"2.5 mg/mL, pH 2, from RT data",7.9%
same,Calculated Degradation 2 y 2-8° C.,"2.5 mg/mL, pH 2, from RT data",4.0%
same,Calculated Degradation 2 y RT,"2.5 mg/mL, pH 2, from RT data",15.9%
same,Observed degradation at 28 days,"2.5 mg/mL, pH 3, 2-8° C.",0.0%
same,Observed degradation at 28 days,"2.5 mg/mL, pH 3, 40° C.",1.8%
same,Observed degradation at 28 days,"2.5 mg/mL, pH 3, RT",0.0%
same,Calculated Degradation 1 y 2-8° C.,[3],0.0%
same,Calculated Degradation 1 y RT,[3],0.0%
same,Calculated Degradation 2 y 2-8° C.,[3],0.0%
same,Calculated Degradation 2 y RT,[3],0.0%
same,Calculated Degradation 1 y,[4],22.5%
same,Calculated Degradation 1 y RT,[4],5.6%
same,Calculated Degradation 2 y 2-8° C.,[4],2.8%
same,Calculated Degradation 2 y RT,[4],11.3%
same,Calculated Degradation 1 y,"2.5 mg/mL, pH 3, from RT data",0.0%
same,Calculated Degradation 1 y RT,"2.5 mg/mL, pH 3, from RT data",0.0%
same,Calculated Degradation 2 y 2-8° C.,"2.5 mg/mL, pH 3, from RT data",0.0%
same,Calculated Degradation 2 y RT,"2.5 mg/mL, pH 3, from RT data",0.0%
same,Observed degradation at 28 days,"2.5 mg/mL, pH 4, 2-8° C.",−0.1%
same,Observed degradation at 28 days,"2.5 mg/mL, pH 4, 40° C.",6.9%
same,Observed degradation at 28 days,"2.5 mg/mL, pH 4, RT",0.3%
same,Calculated Degradation 1 y 2-8° C.,[5],0.0%
same,Calculated Degradation 1 y RT,[5],0.0%
same,Calculated Degradation 2 y 2-8° C.,[5],0.0%
same,Calculated Degradation 2 y RT,[5],0.0%
same,Calculated Degradation 1 y,[6],88.7%
same,Calculated Degradation 1 y RT,[6],22.2%
same,Calculated Degradation 2 y 2-8° C.,[6],11.1%
same,Calculated Degradation 2 y RT,[6],44.3%
same,Calculated Degradation 1 y,"2.5 mg/mL, pH 4, from RT data",3.6%
same,Calculated Degradation 1 y RT,"2.5 mg/mL, pH 4, from RT data",3.6%
same,Calculated Degradation 2 y 2-8° C.,"2.5 mg/mL, pH 4, from RT data",1.8%
same,Calculated Degradation 2 y RT,"2.5 mg/mL, pH 4, from RT data",7.2%
same,Observed degradation at 28 days,"2.5 mg/mL, pH 5, 2-8° C.",0.2%
same,Observed degradation at 28 days,"2.5 mg/mL, pH 5, 40° C.",26.1%
same,Observed degradation at 28 days,"2.5 mg/mL, pH 5, RT",2.9%
same,Calculated Degradation 1 y 2-8° C.,[7],2.9%
same,Calculated Degradation 1 y RT,[7],11.8%
same,Calculated Degradation 2 y 2-8° C.,[7],5.9%
same,Calculated Degradation 2 y RT,[7],23.5%
same,Calculated Degradation 1 y,[8],333.6%
same,Calculated Degradation 1 y RT,[8],83.4%
same,Calculated Degradation 2 y 2-8° C.,[8],41.7%
same,Calculated Degradation 2 y RT,[8],166.8%
same,Calculated Degradation 1 y,"2.5 mg/mL, pH 5, from RT data",37.7%
same,Calculated Degradation 1 y RT,"2.5 mg/mL, pH 5, from RT data",37.7%
same,Calculated Degradation 2 y 2-8° C.,"2.5 mg/mL, pH 5, from RT data",18.9%
same,Calculated Degradation 2 y RT,"2.5 mg/mL, pH 5, from RT data",75.5%
same,Observed degradation at 28 days,"2.5 mg/mL, pH 6, 2-8° C.",0.8%
same,Observed degradation at 28 days,"2.5 mg/mL, pH 6, 40° C.",45.0%
same,Observed degradation at 28 days,"2.5 mg/mL, pH 6, RT",18.1%
same,Calculated Degradation 1 y 2-8° C.,[9],10.7%
same,Calculated Degradation 1 y RT,[9],43.0%
same,Calculated Degradation 2 y 2-8° C.,[9],21.5%
same,Calculated Degradation 2 y RT,[9],86.0%
same,Calculated Degradation 1 y,[10],575.7%
same,Calculated Degradation 1 y RT,[10],143.9%
same,Calculated Degradation 2 y 2-8° C.,[10],72.0%
same,Calculated Degradation 2 y RT,[10],287.8%
same,Calculated Degradation 1 y,"2.5 mg/mL, pH 6, from RT data",231.0%
same,Calculated Degradation 1 y RT,"2.5 mg/mL, pH 6, from RT data",231.0%
same,Calculated Degradation 2 y 2-8° C.,"2.5 mg/mL, pH 6, from RT data",115.5%
same,Calculated Degradation 2 y RT,"2.5 mg/mL, pH 6, from RT data",462.1%
same,predicted degradation over 2 years at RT,"2.5 mg/mL, pH range 2-4, extrapolated from the 2-8° C. data",less than 10%
same,Observed degradation at 28 days,"10 mg/mL, pH 2, 2-8° C.",0.3%
same,Observed degradation at 28 days,"10 mg/mL, pH 2, 40° C.",5.3%
same,Observed degradation at 28 days,"10 mg/mL, pH 2, RT",0.6%
same,Calculated Degradation at 1 y RT,[11],15.4%
same,Calculated Degradation at 2 y 5° C.,[11],7.7%
same,Calculated Degradation at 2 y RT,[11],30.7%
same,Calculated Degradation at 360 d,[11],3.8%
same,Calculated Degradation at 1 y RT,[12],17.1%
same,Calculated Degradation at 2 y 5° C.,[12],8.6%
same,Calculated Degradation at 2 y RT,[12],34.2%
same,Calculated Degradation at 360 d,[12],68.4%
same,Calculated Degradation at 1 y RT,"10 mg/mL, pH 2, from RT data",8.1%
same,Calculated Degradation at 2 y 5° C.,"10 mg/mL, pH 2, from RT data",4.0%
same,Calculated Degradation at 2 y RT,"10 mg/mL, pH 2, from RT data",16.1%
same,Calculated Degradation at 360 d,"10 mg/mL, pH 2, from RT data",8.1%
same,Observed degradation at 28 days,"10 mg/mL, pH 3, 2-8° C.",−0.2%
same,Observed degradation at 28 days,"10 mg/mL, pH 3, 40° C.",1.1%
same,Observed degradation at 28 days,"10 mg/mL, pH 3, RT",0.2%
same,Calculated Degradation at 1 y RT,[13],0.0%
same,Calculated Degradation at 2 y 5° C.,[13],0.0%
same,Calculated Degradation at 2 y RT,[13],0.0%
same,Calculated Degradation at 360 d,[13],0.0%
same,Calculated Degradation at 1 y RT,[14],3.5%
same,Calculated Degradation at 2 y 5° C.,[14],1.8%
same,Calculated Degradation at 2 y RT,[14],7.0%
same,Calculated Degradation at 360 d,[14],14.1%
same,Calculated Degradation at 1 y RT,"10 mg/mL, pH 3, from RT data",2.6%
same,Calculated Degradation at 2 y 5° C.,"10 mg/mL, pH 3, from RT data",1.3%
same,Calculated Degradation at 2 y RT,"10 mg/mL, pH 3, from RT data",5.1%
same,Calculated Degradation at 360 d,"10 mg/mL, pH 3, from RT data",2.6%
same,Observed degradation at 28 days,"10 mg/mL, pH 4, 2-8° C.",−0.1%
same,Observed degradation at 28 days,"10 mg/mL, pH 4, 40° C.",14.3%
same,Observed degradation at 28 days,"10 mg/mL, pH 4, RT",0.7%
same,Calculated Degradation at 1 y RT,[15],0.0%
same,Calculated Degradation at 2 y 5° C.,[15],0.0%
same,Calculated Degradation at 2 y RT,[15],0.0%
same,Calculated Degradation at 360 d,[15],0.0%
same,Calculated Degradation at 1 y RT,[16],45.8%
same,Calculated Degradation at 2 y 5° C.,[16],22.9%
same,Calculated Degradation at 2 y RT,[16],91.7%
same,Calculated Degradation at 360 d,[16],>100%
same,Calculated Degradation at 1 y RT,"10 mg/mL, pH 4, from RT data",8.6%
same,Calculated Degradation at 2 y 5° C.,"10 mg/mL, pH 4, from RT data",4.3%
same,Calculated Degradation at 2 y RT,"10 mg/mL, pH 4, from RT data",17.1%
same,Calculated Degradation at 360 d,"10 mg/mL, pH 4, from RT data",8.6%
same,Observed degradation at 28 days,"10 mg/mL, pH 5, 2-8° C.",0.3%
same,Observed degradation at 28 days,"10 mg/mL, pH 5, 40° C.",34.9%
same,Observed degradation at 28 days,"10 mg/mL, pH 5, RT",5.6%
same,Calculated Degradation at 1 y RT,[17],13.8%
same,Calculated Degradation at 2 y 5° C.,[17],6.9%
same,Calculated Degradation at 2 y RT,[17],27.6%
same,Calculated Degradation at 360 d,[17],3.5%
same,Calculated Degradation at 1 y RT,[18],>100%
same,Calculated Degradation at 2 y 5° C.,[18],55.9%
same,Calculated Degradation at 2 y RT,[18],>100%
same,Calculated Degradation at 360 d,[18],>100%
same,Calculated Degradation at 1 y RT,"10 mg/mL, pH 5, from RT data",71.4%
same,Calculated Degradation at 2 y 5° C.,"10 mg/mL, pH 5, from RT data",35.7%
same,Calculated Degradation at 2 y RT,"10 mg/mL, pH 5, from RT data",>100%
same,Calculated Degradation at 360 d,"10 mg/mL, pH 5, from RT data",71.4%
same,Observed degradation at 28 days,"10 mg/mL, pH 6, 2-8° C.",1.9%
same,Observed degradation at 28 days,"10 mg/mL, pH 6, 40° C.",45.1%
same,Observed degradation at 28 days,"10 mg/mL, pH 6, RT",26.9%
same,Calculated Degradation at 1 y RT,[19],95.7%
same,Calculated Degradation at 2 y 5° C.,[19],47.8%
same,Calculated Degradation at 2 y RT,[19],>100%
same,Calculated Degradation at 360 d,[19],23.9%
same,Calculated Degradation at 1 y RT,[20],>100%
same,Calculated Degradation at 2 y 5° C.,[20],72.2%
same,Calculated Degradation at 2 y RT,[20],>100%
same,Calculated Degradation at 360 d,[20],>100%
same,Calculated Degradation at 1 y RT,"10 mg/mL, pH 6, from RT data",>100%
same,Calculated Degradation at 2 y 5° C.,"10 mg/mL, pH 6, from RT data",>100%
same,Calculated Degradation at 2 y RT,"10 mg/mL, pH 6, from RT data",>100%
same,Calculated Degradation at 360 d,"10 mg/mL, pH 6, from RT data",>100%
same,extrapolated degradation after 2 years at room temperature,2.5 or 10 mg/mL solutions at pH 3,less than 10%
same,pH of least degradation,"28 day point, 10 and 2.5 mg/mL",approximately 3.0
